Tests used:
[1] = Dark/light chamber test of offspring; type: in vivo, mice
Excerpt: FIGS. 20A-C. […] The order of the bars from left to right are: males of normal chow (NC) mothers (white with light grey outline), followed by males of NR-supplemented mothers (filled light grey), followed by females of NC mothers (white with dark grey outline), followed by females of NR-supplemented mothers (filled dark grey). It was considered interesting that males and female adults of NR-supplemented mothers maintain distinct physical advantages into adulthood on the basis of the mother's micronutrition. […] This could be interpreted either as a simple increase in activity and/or a less anxious state of being.

[2] = system: lipid biosynthetic genes and lactose biosynthetic genes; experiment: Mammary lipid and lactose biosynthetic gene expression; type: in vivo, mice; conditions: NR in the diet
Excerpt: (§1) FIGS. 13A-D. NR boosts prolactin circulation and mammary biosynthetic pathways for protein, fat and carbohydrate. FIG. 13A. Prolactin levels in plasma from dam on NC or NR chow. FIG. 13B. mTOR pathway is activated in NR-supplemented mammary tissue. FIG. 13C. Genes involved in lipid biosynthesis are activated in NR-supplemented mammary tissue. FIG. 13D. Genes involved in lactose synthesis pathway are activated in NR-supplemented mammary tissue. […] In addition, the size of the mammary tissue itself is greater in NR-supplemented mothers than in non-supplemented mothers (FIG. 14A).

[3] = system: NAD biosynthetic genes in the mammary glands; experiment: Mammary NAD biosynthetic gene expression and NAD metabolites; type: in vivo, mice
Excerpt: FIGS. 12A-D. Lactation and NR boost the mammary NAD program. FIG. 12A. NR promotes expression of NAD biosynthetic genes in the mammary glands. FIG. 12B. […] FIG. 12C. Lactation boosts NMN in mammary. FIG. 12D. Lactation and NR boost mammary NR in an additive manner. […] As shown in FIGS. 12B-12C, maternal NAD and NMN are elevated in the mammary of lactating mammary with respect to nonlactating mammary tissue.

[4] = Maternal weight gain, NR chloride in chow from 12 weeks before mating through weaning; type: in vivo; conditions: female mice, NC+NR vs NC
Excerpt: Mice are a widely used model of human metabolism because they are capable of recapitulating many aspects of human health. […] Therefore, mice were used in a series of in vivo experiments to evaluate whether maternally supplemented NR has the ability to improve maternal and/or neonatal health and development. Specifically, it was asked whether addition of NR chloride (3 g/kg of chow) to the diet of female mice would alter their health during and after pregnancy and whether this administration would produce any beneficial effects on the pups.
(§2) Female C57BL/6N mice were raised in 12 hour light:dark cycles on Teklad 2920X chow (NC). For 12 weeks prior to mating with a single C57BL/6N male, females were on either NC (n=4) or NC+NR (n=4). Females were maintained on the same diet through gestation and weaning, which was at 21 days after birth.

[5] = Offspring fasting glucose (Example 1); type: in vivo, mice
Method: Female C57BL/6N mice were raised in 12 hour light:dark cycles on Teklad 2920X chow (NC). For 12 weeks prior to mating with a single C57BL/6N male, females were on either NC (n=4) or NC+NR (n=4). Females were maintained on the same diet through gestation and weaning, which was at 21 days after birth. […] The mild hypoglycemia of mice on standard chow was not expected and the improvement in glycemic control by virtue of supplementing mothers was unexpected.

[6] = Post-partum NR supplementation: milk volume and macronutrient density; type: in vivo, mice
Method: FIGS. 8A-C. Milk from NR-supplemented mothers had normal macronutrient density. Oxytocin-induced milk collection at indicated days. Protein (FIG. 8A), carbohydrate (FIG. 8B) and lipid concentration (FIG. 8C) was not changed. A series of in vivo murine experiments were performed to evaluate the effects of nicotinamide riboside on milk production. […] As shown in FIGS. 8A-C, the concentration of protein, carbohydrate and fat in the milk of NR-supplemented mothers was normal. Because there is approximately 2-fold more milk produced by NR-supplemented mothers, NR-supplemented mothers transmit more calories to their offspring, which thereby assists maternal weight loss and neonatal development. In FIG. 9A, the concentration of NAD precursor vitamins in the milk from control mothers and NR-supplemented mothers was determined. […] Oral NR was labeled with heavy atoms in the nicotinamide and ribose moieties of NR and this was provided to lactating mothers by gavage.

[7] = system: NAD biosynthetic genes in the liver; experiment: Hepatic NAD biosynthetic gene expression and NAD metabolites; type: in vivo; conditions: lactating mice with vs without NR
Excerpt: Lactation boosts NAD biosynthetic genes (FIG. 11A) and NAD levels (FIG. 11B) in the liver. […]. Lactation seems to depress levels of NR (FIG. 11C) and Nam (FIG. 11D) in the liver.

[8] = Body composition of adult offspring; type: in vivo, mice; conditions: 90 days old
Method: FIGS. 23A-C. 69 days after their mother's intervention, 90 day-old adult offspring of NR-supplemented mothers have less fat mass. The order of the bars from left to right are: males of normal chow (NC) mothers (white with light grey outline), followed by males of NR-supplemented mothers (filled light grey), followed by females of NC mothers (white with dark grey outline), followed by females of NR-supplemented mothers (filled dark grey). At 90 days old, body composition analysis was performed on the mice. […] There is no effect on the total amount of lean mass (23C). Particularly because the maternal intervention produced somewhat bigger weanlings with more fat and lean mass, the protection against age-induced weight gain was unanticipated.

prolactin = experiment: Prolactin levels in plasma from dam; type: in vivo, mice; conditions: plasma from dam on NC or NR chow
Excerpt: as §1

[9] = Milk production, oxytocin-induced milk collection (Example 1); type: in vivo, mice; conditions: collected volume per mother after oxytocin, days 0, 7, 14 and 21 after partum; NC+NR vs NC
Method: as §2
To determine the production of milk, we separated mothers were separated from pups for several hours and provided an injection of oxytocin on days 0, 7, 14 and 21 after partum. Milk was carefully collected by pipetting and the collected volume per mother was plotted. The galactogogue activity of NR was striking and entirely unexpected.

UCP1 = UCP1 expression in mammary tissue; type: in vivo, mice; conditions: NR-supplemented vs NC mothers
Excerpt: FIGS. 14A-B. Postpartum NR supplementation promotes mammary gland development (n=5 mice per group) (FIG. 14A). NR increases heat loss by increasing expression of UCP1 (FIG. 14B). […] In addition, the size of the mammary tissue itself is greater in NR-supplemented mothers than in non-supplemented mothers (FIG. 14A).

[10] = supplementing post-gestational mothers

NC(=O)c1ccc[n+]([C@@H]2O[C@H](CO)[C@@H](O)[C@H]2O)c1 [NR, nicotinamide riboside]
time in the light ([1]; 75 day-old female offspring): spend more time in the light | time in the light chamber of a dark/light chamber ([1]; 75 days of age, offspring of NR-supplemented mothers): more willing to spend time in the light chamber | mammary lactose biosynthetic genes [2]: strongly induced | mammary lipid biosynthetic genes [2]: strongly induced | mammary NR ([3]; lactating female mouse, above level in lactating female): large increase | mammary NAD+ levels ([3]; lactating mammary gland, NR supplementation): tends to further increase | expression of NAD biosynthetic genes in lactating mammary ([3]; mother supplemented with NR): very high level of expression | maternal body fat at the time of weaning [4]: tended to have lower body fat | weight gain from the day of mating to the day of weaning ([4]; NR chloride 3 g/kg of chow): protected from this weight gain | glucose after an overnight fast, mice raised by NR-supplemented mothers [5]: better at maintaining glucose | concentration of carbohydrate in the milk ([6]; NR-supplemented mothers): normal | concentration of fat in the milk ([6]; NR-supplemented mothers): normal | concentration of protein in the milk ([6]; NR-supplemented mothers): normal | milk produced vs non-supplemented mothers [6, 10]: approximately 2 fold | milk production [6, 10]: large increase | NAD biosynthetic genes and NAD levels in the liver [7]: does not superinduce | hepatic NAD biosynthetic gene expression [7]: did not further increase | levels of NR and Nam in the liver [7]: depresses the accumulation of these metabolites in the liver even more | total amount of lean mass of adult offspring [8]: no effect | body size of adult offspring ([8]; male offspring): slightly smaller | adipose tissue of adult offspring ([8]; males and females, 69 days after mother's intervention): less adipose tissue | circulating prolactin (prolactin): very high levels | increase in milk production [9]: 2-3 x | expression of UCP1 in mammary tissue (UCP1): increase in expression
